One data set deals with P. aeruginosa PAO1. The data set can be described thus: Fluorescence microscopy, penetration of bolalipid. It is filed as cell-based, Pseudomonas aeruginosa. As to conditions: 180 μM. Here is the method:
P. aeruginosa PAO1 was incubated with CM2 alone or in combination with tobramycin. A single colony of bacteria was collected from a Luria-Bertani (LB) agar plate and resuspended in 10 mL of LB broth overnight at 37°C, with shaking at 150 rpm. The following morning, a 2% (vol/vol) dilution was done in fresh LB broth, and the bacteria suspension was grown at 37°C with shaking at 150 rpm until it reached an OD600 of 0.3. The surface of microscopy SuperFrost glass slides (Thermo Fisher Scientific, Massachusetts, USA) was marked with a PAP pen, in order to design two square confined areas per glass slide, where the bacteria were deposited. One hundred microliters of bacterial suspension was transferred into sterile Eppendorf tubes and incubated with equal volumes of bolalipid suspension for 1 h. The bolalipid final concentration was 0.18 mM. The fluorescent Alexa Fluor 555 conjugate of wheat germ agglutinin (WGA) (Thermo Fisher Scientific) lectin membrane dye (10 μg/mL final concentration) was added to the suspension, and the bacteria were incubated for 45 min more. At the end of incubation, 100 μL was spotted in each half of the SuperFrost glass slides and incubated for 45 min more. Glass slides were then washed three times with phosphate-buffered saline (PBS) and left to dry for 5 min before addition of one drop of Fluoromount (Sigma-Aldrich, Germany) aqueous mounting medium. […]

For data set [1], the system named is Prevotella bivia NCTC 11156. The data set is described as follows: Anaerobic broth microdilution MIC (BHI, 5% horse serum). It is filed as cell-based. Conditions: NCTC11156, read-out: MIC.
A further data set relates to G. vaginalis NCTC 10287. The data set is described as above. It is filed as cell-based, Gardnerella vaginalis. As to conditions: Gardnerella vaginalis, NCTC10287, read-out: MIC.
In a further data set the test system is G. vaginalis KC1. The data set is described as above. It is filed as cell-based, Gardnerella vaginalis. As to conditions: Gardnerella vaginalis, read-out: MIC.
Another data set deals with G. vaginalis KC2. Described as above. As to conditions: Gardnerella vaginalis, read-out: MIC. The format is cell-based, Gardnerella vaginalis.
Another data set deals with G. vaginalis KC3. The description is as above. It is filed as cell-based, Gardnerella vaginalis. Conditions: Gardnerella vaginalis, read-out: MIC.
Data set [2] has as its system Candida auris TGD1912. The data set is described as follows: MIC. The format is cell-based.
Data set [3] deals with Candida auris TGD1912. The data set can be described thus: Fluorescence microscopy, accumulation of bolalipid. It is filed as cell-based. As to conditions: 0.18 mM (approximately 54× the MIC), 30 min. Here is the method: Candida auris cells were picked from a yeast extract-peptone-dextrose (YPD) agar plate and resuspended in 35 mL of sterile distilled water (dH2O). After resuspension, 150 μL of cells was inoculated in 100 mL of YPD broth overnight at 30°C with shaking at 130 rpm and grown to exponential phase (5 × 10^6 to 5 × 10^7 cells/mL). Cells (6 × 10^8) were washed in standard defined (SD) medium twice (pelleted at 1,500 × g for 5 min and resuspended in 10 mL SD medium [yeast nitrogen base without the amino acids D-glucose, methionine, adenine, histidine, tryptophan, uracil, leucine, and lysine]), followed by resuspension in 1 mL SD medium containing 0.18 mM Penta-bola, and incubated at 37°C for 30 min. After treatment with the Penta-bola, cells were pelleted and resuspended in Hanks’ balanced salt solution (HBSS) and 50 μg/mL CF594 concanavalin A (Biotium). After incubation at 37°C for 30 min, cells were washed once with HBSS and resuspended in 1 mL of HBSS. Polysine adhesion slides (Thermo Scientific) were prepared by spreading 20 μL of treated cells and allowing them to dry for 30 min before adding one drop of Fluoromount (Sigma-Aldrich, Germany) aqueous mounting medium. Fluorescence images were acquired using a Leica fluorescence microscope at ×100 magnification. […]

Data set [4] can be described thus: Maximum solubility in water. It is filed as physicochemical. As to conditions: ultrapure water, 40 °C, thermodynamic from solid. The protocol: Stock solutions of bolalipids were prepared by dispersing the powder in ultrapure water, then stirring vigorously by vortexing, and sonicating in a 40°C bath sonicator for 20 min. The concentration of each stock solution corresponds to the highest solubility achieved in water for each bolalipid, using the method described above. DLS experiments were performed on a Malvern Zetasizer Nano (Malvern Instruments, Worcestershire, UK) in back-scattering mode at 20°C. There were three independent measurements of each sample and 12 runs for each measurement, with 10 s taken for each run. The attenuator index and measurement position were automatically adjusted. Fifty microliters of each sample was transferred into polystyrene semi-microcuvettes for determination of UV and visible wavelengths (Sarstedt).

The subject of data set [5] is Pseudomonas aeruginosa RP73. The data set is described as follows: In vitro pharmacodynamic (PD) assay. Conditions: P. aeruginosa RP73; combination 2:1 (wt/wt).
Protocol: In vitro PD assays were performed with Pseudomonas aeruginosa RP73 cultured in Roswell Park Memorial Institute 1640 medium (RPMI) supplemented with 5% Mueller-Hinton broth (MHB) ([35]). Bacteria were cultured overnight in 10 mL of RPMI–5% MHB at 37°C and diluted just prior to plate inoculation to an OD600 of 0.002. Stock solutions of colistin or tobramycin were prepared in sterile MilliQ water at a concentration of 200× MIC. Octa-bola was prepared in methanol at 2,000× MIC and diluted in water to 200× MIC. A dilution series was made in the top row of a polypropylene 96-well plate from 200× MIC to 0.2× MIC in a volume of 100 μL, to which 100 μL of the bacterial suspension was added to have a total of 1 × 10^6 log-phase CFU in 200 μL. The first time zero sample was taken <30 s after addition of bacteria to the plate, with further samples taken at appropriate intervals thereafter. […] Fifteen microliters was removed from each well, diluted 1:1,000 in phosphate-buffered saline, and plated onto RPMI–5% MH agar plates. The plates were incubated at 37°C overnight for CFU counting.
CFU data were log10 transformed, and the bacterial net growth rate was determined from the increase or decrease in CFU during the time of exposure to the antibiotics as the coefficient of a linear regression of log10 CFU as a function of time. The intercept of the regression was fixed by forcing the regression lines through the first CFU measurement (0 min) at a given antimicrobial concentration. The pharmacodynamic function according to Regoes et al. ([36]) describes the relationship between bacterial net growth rate (ψ) and the concentration of an antimicrobial (a): ψmax − ([ψmax − ψmin][a/zMIC])^κ/([a/zMIC]^κ − [ψmin/ψmax]). Fitting this function to the net bacterial growth rates in OriginPro 2020 (OriginLab Corporation, Northampton, MA) generates the parameters ψmin and ψmax (minimum and maximum growth rates, respectively), zMIC (the pharmacodynamic MIC), and κ (a measure of the cooperativity). […]

For `Nc1c2c([n+](CCCCCCCCCCCC[n+]3c4c(c(N)c5ccccc53)CCCC4)c3ccccc13)CCCC2` [12-bis-THA Cl2, 12,12′-(Dodecane-1,12-diyl)-bis-(9-amino-1,2,3,4-tetrahydroacridinium) chloride], in the data set on P. aeruginosa PAO1, the “bacterial integrity / accumulation of bolalipid” value is “the bacteria appeared intact and the bolalipid was concentrated within the cells”.
Turning to `Cc1cc(N)c2ccccc2[n+]1CCCCCCCCCC[n+]1c(C)cc(N)c2ccccc21` [Dequalinium, dequalinium chloride, reference compound], the MIC in [1] is 2 µg/mL; in the data set with G. vaginalis NCTC 10287 it was 2 µg/mL; in the data set with G. vaginalis KC1 it was 2 µg/mL; in the data set with G. vaginalis KC2, 4 µg/mL; in the data set on G. vaginalis KC3 it was 2 to 4 µg/mL.
Take `Nc1c2c([n+](CCCCCCCCCCCC[n+]3c4c(c(N)c5ccccc53)CCC4)c3ccccc13)CCC2` [Penta-bola]: the MIC against Candida auris TGD1912 [2] stood at 2 µg/mL. Moreover, in the data set on Candida auris TGD1912 [3], the “cell integrity / accumulation of bolalipid” value was “the cells remained intact”.
In the case of `Nc1c2c([n+](CCCCCCCCCCCC[n+]3c4c(c(N)c5ccccc53)CCCCCC4)c3ccccc13)CCCCCC2` [Octa-bola], the solubility at 20 min in [4] amounted to 360 µM. In addition, the “bactericidal activity (minimum growth rate, ψmin)” value in data set [5] is on record as “strongly bactericidal, albeit only at the highest concentration tested”.

Source of the values: publication PMC9942557, “Bolaamphiphile Analogues of 12-bis-THA Cl2 Are Potent Antimicrobial Therapeutics with Distinct Mechanisms of Action against Bacterial, Mycobacterial, and Fungal Pathogens” (mSphere, 2022).
